From patent US8133884B2, “Compounds for the treatment of hepatitis C” (priority 2008, dated 2012)

What was measured:
[1] = biological target: T1, HCV NS5B (Hepatitis C virus genotype 1b, UniProt Q9WMX2); assay: Modified HCV NS5B RdRp enzyme assay (preincubation protocol); format: biochemical
T1 construct: The protein was expressed with an 18 amino acid C-terminal truncation to enhance the solubility; made in house; host or cells: E. coli BL21(DE3)
Procedure, shortened: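 C-terminally truncated (Δ18) genotype 1b NS5B from E. coli, 14 nM, added to compound first, then polyA template (0.2 nM), 3H-UTP (0.29 μM) and oligo-dT12 primer precaptured on streptavidin SPA beads (20 nM). Run 4 h at 30° C, pH 7.5, 2% DMSO; IC50 fitted from seven concentrations.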

[2] = test system: HCV replicon; assay: HCV replicon assay (FRET or luciferase reporter); format: cell-based; details: Hepatitis C virus, one of the methods described
Text: To perform the HCV FRET screening assay, 96-well cell culture plates were used, The FRET peptide (Anaspec, Inc.) (Taliani et al., Anal. Biochem., 240:60-67 (1996)) contains a fluorescence donor, EDANS, near one end of the peptide and an acceptor, DABCYL, near the other end. The fluorescence of the peptide is quenched by […] resonance energy transfer (RET) between the donor and the acceptor, but as the NS3 protease cleaves the peptide the products are released from RET quenching and the fluorescence of the donor becomes apparent. The assay reagent was made as follows: 5× cell Luciferase cell culture lysis reagent from Promega (#E153A) diluted to 1× with dH2O, NaCl added to 150 mM final, the FRET peptide diluted to 20 μM final from a 2 mM stock.
To prepare plates, HCV replicon cells, with or without a Renilla luciferase reporter gene, were trypsinized and placed into each well of a 96-well plate with titrated test compounds added in columns 3 through 12; columns 1 and 2 contained a control compound (HCV protease inhibitor), and the bottom row contained cells without compound. The plates were then placed in a CO2 incubator at 37° C.
Subsequent to addition of the test compounds described above (FRET Assay Preparation), at various times the plate was removed and Alamar blue solution (Trek Diagnostics, #00-100) was added per well as a measure of cellular toxicity. After reading in a CYTOFLUOR® 4000 instrument (PE Biosystems), plates were rinsed with PBS and then used for FRET assay by the addition of 30 ul of the FRET peptide assay reagent described above (FRET Assay Preparation) per well. The plate was then placed into the CYTOFLUOR® 4000 instrument which had been set to 340 excite/490 emission, automatic mode for 20 cycles and the plate read in a kinetic mode. Typically, the signal to noise using an endpoint analysis after the reads was at least three-fold. Alternatively, after Alamar blue reading, plates were rinsed with PBS, 50 ul of DMEM (high glucose) without phenol red was added and plates were then used for luciferase assay using the Promega DUAL-GLO® Luciferase Assay System.
Compound analysis was determined by quantification of the relative HCV replicon inhibition and the relative cytotoxicity values. To calculate cytoxicity values, the average Alamar Blue fluorescence signals from the control wells were set as 100% non-toxic. The individual signals in each of the compound test wells were then divided by the average control signal and multiplied by 100% to determine […]. To calculate the HCV replicon inhibition values, an average background value was obtained from the two wells containing the highest amount of HCV protease inhibitor at the end of the assay period. These numbers were similar to those obtained from naïve Huh-7 cells.
The background numbers were then subtracted from the average signal obtained from the control wells and this number was used as 100% activity. The individual signals in each of the compound test wells were then divided by the averaged control values after background subtraction and multiplied by 100% to determine percent activity. EC50 values for a protease inhibitor titration were calculated as the concentration which caused a 50% reduction in FRET or luciferase activity. The two numbers generated for the compound plate, percent cytoxicity and percent activity were used to determine compounds of interest for further analysis.
The HCV replicon luciferase assay was developed to monitor the inhibitory effects of compounds described in the disclosure on HCV viral replication. Utilization of a replicon luciferase reporter assay was first described by Krieger et al (Krieger, N. et al., J. Virology, 75(10):4614-4624 (2001)). HUH-7 cells, constitutively expressing the HCV replicon, were grown in Dulbecco's Modified Eagle Media (DMEM) (Gibco-BRL) containing 10% Fetal calf serum (FCS) (Sigma) and 1 mg/ml G418 (Gibco-BRL). […]

T1 sequence (Q9WMX2 2420-2992): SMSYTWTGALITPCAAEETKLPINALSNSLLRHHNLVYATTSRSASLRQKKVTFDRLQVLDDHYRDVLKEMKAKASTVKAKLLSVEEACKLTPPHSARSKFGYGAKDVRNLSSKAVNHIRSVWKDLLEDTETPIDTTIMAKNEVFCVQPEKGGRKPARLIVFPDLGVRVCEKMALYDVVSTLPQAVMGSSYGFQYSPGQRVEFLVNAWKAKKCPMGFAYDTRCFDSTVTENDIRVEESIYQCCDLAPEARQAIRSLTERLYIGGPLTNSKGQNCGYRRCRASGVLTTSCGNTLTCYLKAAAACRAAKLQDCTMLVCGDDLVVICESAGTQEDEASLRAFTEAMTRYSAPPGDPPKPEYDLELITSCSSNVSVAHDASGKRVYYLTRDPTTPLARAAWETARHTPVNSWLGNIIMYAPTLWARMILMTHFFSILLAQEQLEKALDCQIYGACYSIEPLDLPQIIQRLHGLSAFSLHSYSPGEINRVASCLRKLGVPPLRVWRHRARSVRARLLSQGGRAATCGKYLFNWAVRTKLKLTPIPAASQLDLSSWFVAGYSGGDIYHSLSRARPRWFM

SMILES	IC50 ([1]; class symbol) [nM]	EC50 ([2]; class symbol) [nM]	IC50 ([1]; exact value) [nM]	EC50 ([2]; exact value) [nM]
COc1ccc2c(c1)C=C(c1c(C(=O)N3C4CCC3CC(C)(O)C4)cnn1-c1ccncc1C)Cn1c-2c(C2CCCCC2)c2ccc(C(=O)NS(=O)(=O)C(C)C)cc21 (stereo not drawn)	1.7 to 500	1.7 to 500	–	–
COc1ccc2c(c1)C=C(c1c(C(=O)N3C4CCC3CN(C)C4)cnn1C1CCN(C)CC1)Cn1c-2c(C2CCCCC2)c2ccc(C(=O)NS(=O)(=O)C(C)C)cc21	1.7 to 500	1.7 to 500	–	–
COC[C@H]1CN(C(=O)c2cnn(C3CCC3)c2C2=Cc3cc(OC)ccc3-c3c(C4CCCCC4)c4ccc(C(=O)NS(=O)(=O)C(C)C)cc4n3C2)CCO1	< 1.7	1.7 to 500	< 1.7	10
COc1ccc2c(c1)C=C(c1c(C(=O)N3CCN(C4CCCC4)CC3)cnn1C1CCC1)Cn1c-2c(C2CCCCC2)c2ccc(C(=O)NS(=O)(=O)C(C)C)cc21	1.7 to 500	1.7 to 500	–	–
COc1ccc2c(c1)C=C(c1c(C(=O)N3C[C@@H](C)O[C@@H](C)C3)ncn1C1CC1)Cn1c-2c(C2CCCCC2)c2ccc(C(=O)NS(=O)(=O)C(C)C)cc21	1.7 to 500	1.7 to 500	–	–
COc1ccc2c(c1)C=C(c1c(C(=O)N3C[C@@H](C)O[C@@H](C)C3)cnn1C1CCN(C)CC1)Cn1c-2c(C2CCCCC2)c2ccc(C(=O)NS(=O)(=O)C(C)C)cc21	1.7 to 500	1.7 to 500	5.4	5.5
COc1ccc2c(c1)C=C(c1ncn(C3CCC3)c1C(=O)N1CCOCC1)Cn1c-2c(C2CCCCC2)c2ccc(C(=O)NS(=O)(=O)C(C)C)cc21	1.7 to 500	1.7 to 500	1.8	9
COc1ccc2c(c1)C=C(c1c(C(=O)N3CCOCC3)cnn1C1CCOCC1)Cn1c-2c(C2CCCCC2)c2ccc(C(=O)NS(=O)(=O)C(C)C)cc21	1.7 to 500	1.7 to 500	–	–
COc1ccc2c(c1)C=C(c1c(C(=O)N3C[C@@H](C)O[C@@H](C)C3)cnn1C1CCC1)Cn1c-2c(C2CCCCC2)c2ccc(C(=O)NS(=O)(=O)C(C)C)cc21	1.7 to 500	1.7 to 500	–	–
COc1ccc2c(c1)C=C(c1c(C(=O)N3C[C@@H](C)O[C@@H](C)C3)cnn1C1CCC1)Cn1c-2c(C2CCCCC2)c2ccc(C(=O)NS(=O)(=O)N(C)C)cc21 [drawing 259]	1.7 to 500	1.7 to 500	–	–
COc1ccc2c(c1)C=C(c1c(C(=O)N3CCN(C)CC3)c(C)nn1C1CCC1)Cn1c-2c(C2CCCCC2)c2ccc(C(=O)NS(=O)(=O)C(C)C)cc21	1.7 to 500	1.7 to 500	–	–
COc1ccc2c(c1)C=C(c1c(C(=O)N3C[C@@H](C)O[C@@H](C)C3)cnn1-c1nc3ccccc3[nH]1)Cn1c-2c(C2CCCCC2)c2ccc(C(=O)NS(=O)(=O)C(C)C)cc21	1.7 to 500	1.7 to 500	9	150
COc1ccc2c(c1)C=C(c1c(C(=O)N3C[C@@H]4C[C@H]3CN4CC3CC3)c(C)nn1C1CCC1)Cn1c-2c(C2CCCCC2)c2ccc(C(=O)NS(=O)(=O)C(C)C)cc21	1.7 to 500	1.7 to 500	–	–
COC[C@@H]1CN(C(=O)c2cnn(C3CCC3)c2C2=Cc3cc(OC)ccc3-c3c(C4CCCCC4)c4ccc(C(=O)NS(=O)(=O)C(C)C)cc4n3C2)CCO1	1.7 to 500	1.7 to 500	–	–
COCCN(CCOC)C(=O)c1cnn(C2CCC2)c1C1=Cc2cc(OC)ccc2-c2c(C3CCCCC3)c3ccc(C(=O)NS(=O)(=O)C(C)C)cc3n2C1	1.7 to 500	1.7 to 500	–	–
COc1ccc2c(c1)C=C(c1c(C(=O)N3CC4CCC(C3)N4C)cnn1C1CCOCC1)Cn1c-2c(C2CCCCC2)c2ccc(C(=O)NS(=O)(=O)C(C)C)cc21	1.7 to 500	1.7 to 500	–	–
COc1ccc2c(c1)C=C(c1c(C(=O)N3CCC(F)(F)CC3)cnn1C1CCC1)Cn1c-2c(C2CCCCC2)c2ccc(C(=O)NS(=O)(=O)C(C)C)cc21	1.7 to 500	1.7 to 500	–	–

SMILES	IC50 ([1]; class symbol) [nM]	EC50 ([2]; class symbol) [nM]	IC50 ([1]; exact value) [nM]	EC50 ([2]; exact value) [nM]
COc1ccc2c(c1)C=C(c1c(C(=O)N3CCOCC3)cnn1C1CCC1)Cn1c-2c(C2CCCCC2)c2ccc(C(=O)NS(=O)(=O)CC(C)C)cc21	1.7 to 500	1.7 to 500	–	–
COc1ccc2c(c1)C=C(c1c(C(=O)N3C4CCC3CC(C)(O)C4)cnn1C1CCC1)Cn1c-2c(C2CCCCC2)c2ccc(C(=O)NS(=O)(=O)CC(C)C)cc21 (stereo not drawn)	1.7 to 500	1.7 to 500	–	–
COc1ccc2c(c1)C=C(c1ncn(C3CCC3)c1C(=O)N1C[C@@H](C)O[C@@H](C)C1)Cn1c-2c(C2CCCCC2)c2ccc(C(=O)NS(=O)(=O)C(C)C)cc21	1.7 to 500	1.7 to 500	–	–
COc1ccc2c(c1)C=C(c1c(C(=O)N3C[C@@H](C)N(C)[C@@H](C)C3)cnn1C1CCC1)Cn1c-2c(C2CCCCC2)c2ccc(C(=O)NS(=O)(=O)C(C)C)cc21	1.7 to 500	1.7 to 500	–	–
COc1ccc2c(c1)C=C(c1c(C(=O)N3CCCOCC3)cnn1C1CCC1)Cn1c-2c(C2CCCCC2)c2ccc(C(=O)NS(=O)(=O)C(C)C)cc21	1.7 to 500	1.7 to 500	5.4	7.6
COc1ccc2c(c1)C=C(c1c(C(=O)N3CCN4CCC[C@H]4C3)cnn1C1CCC1)Cn1c-2c(C2CCCCC2)c2ccc(C(=O)NS(=O)(=O)C(C)C)cc21	1.7 to 500	1.7 to 500	–	–
COc1ccc2c(c1)C=C(c1c(C(=O)N3C4CCC3CN(C)C4)cnn1C1CCC1)Cn1c-2c(C2CCCCC2)c2ccc(C(=O)NS(=O)(=O)N(C)C)cc21	1.7 to 500	1.7 to 500	–	–
COc1ccc2c(c1)C=C(c1c(C(=O)N3C[C@@H](C)O[C@@H](C)C3)cnn1-c1ccncc1C)Cn1c-2c(C2CCCCC2)c2ccc(C(=O)NS(=O)(=O)C3CC3)cc21	1.7 to 500	1.7 to 500	–	–
COc1ccc2c(c1)C=C(c1c(C(=O)N3CCOCC3)cnn1C1CCN(C)CC1)Cn1c-2c(C2CCCCC2)c2ccc(C(=O)NS(=O)(=O)C(C)C)cc21	1.7 to 500	1.7 to 500	–	–
COc1ccc2c(c1)C=C(c1c(C(=O)N3C[C@@H](C)O[C@@H](C)C3)cnn1-c1ccncc1)Cn1c-2c(C2CCCCC2)c2ccc(C(=O)NS(=O)(=O)C(C)C)cc21	1.7 to 500	1.7 to 500	–	–
CCOC(=O)c1cnn(-c2ccncc2C)c1C1=Cc2cc(OC)ccc2-c2c(C3CCCCC3)c3ccc(C(=O)O)cc3n2C1	1.7 to 500	1.7 to 500	–	–
COc1ccc2c(c1)C=C(c1c(C(=O)N3C4COCC3COC4)cnn1-c1ccncc1C)Cn1c-2c(C2CCCCC2)c2ccc(C(=O)NS(=O)(=O)C(C)C)cc21	1.7 to 500	1.7 to 500	–	–
COc1ccc2c(c1)C=C(c1c(C(=O)N3C4CCCC3COC4)cnn1C1CCC1)Cn1c-2c(C2CCCCC2)c2ccc(C(=O)NS(=O)(=O)C(C)C)cc21	1.7 to 500	1.7 to 500	–	–
COc1ccc2c(c1)C=C(c1c(C(=O)N3C[C@@H](C)O[C@@H](C)C3)ncn1C1CCC1)Cn1c-2c(C2CCCCC2)c2ccc(C(=O)NS(=O)(=O)C(C)C)cc21	1.7 to 500	1.7 to 500	–	–
COC[C@@H]1CN(C(=O)c2c(C)nn(C3CCC3)c2C2=Cc3cc(OC)ccc3-c3c(C4CCCCC4)c4ccc(C(=O)NS(=O)(=O)C(C)C)cc4n3C2)CCO1	1.7 to 500	1.7 to 500	–	–
COc1ccc2c(c1)C=C(c1c(C(=O)N3C[C@@H](C)O[C@@H](C)C3)cnn1-c1ccccc1)Cn1c-2c(C2CCCCC2)c2ccc(C(=O)NS(=O)(=O)C(C)C)cc21	1.7 to 500	1.7 to 500	–	–
COc1ccc2c(c1)C=C(c1c(C(=O)N3C4CCC3CC4)cnn1C1CCC1)Cn1c-2c(C2CCCCC2)c2ccc(C(=O)NS(=O)(=O)C(C)C)cc21	1.7 to 500	1.7 to 500	–	–
